Target: SARS 3CL^PRO (Severe acute respiratory syndrome coronavirus, UniProt P0C6X7)
Test: biochemical

| SMILES | IC50 (ID50) [µM] | IC50 (ID50 (μM) (by kinetic assay) SARS 3CL^PRO) [µM] |
| --- | --- | --- |
| O=c1ccc2ccc(O)c(O)c2o1 [Compound C10, Daphnetin] | 168 | – |
| CC(=O)Nc1cc2cc(OC(C)=O)c(OC(C)=O)cc2oc1=O [Compound C12, 3-aminoacyl-6,7-diacetoxycoumarin] | 183 | – |
| O=c1oc2cc(O)c(O)cc2cc1O [Compound C11, 3-hydroxyesculetin] | 97 | 96.6 |
| O=c1oc2c(O)c(O)ccc2cc1O [Compound C21, 3,7,8-trihydroxycoumarin] | 100 | – |
| CC(=O)Nc1cc2ccc(OC(C)=O)c(OC(C)=O)c2oc1=O [Compound C22, 3-aminoacyl-7,8-diacetoxycoumarin] | 184 | – |
